{"source": "patent US9689040B2", "about": "“Selective inhibitors of tumor-initiating cells” (Children's Medical Center Corporation, priority 2011, dated 2017)", "key": {"BPLER cells": {"test_system": "BPLER cells", "assay": "Apoptosis (Annexin V/PI flow cytometry, caspase 3 and PARP cleavage immunoblot)", "type": "cell-based, human", "settings": "clinically relevant / low dose, 24 hours", "protocol": "(§1) BPLER were used as control. […] The percentage of double-positive cells is indicated.\n(§2) To further define factors underlying such properties of BPLER cells, we first determined the molecular mechanism by which proteasome inhibition affects the growth of these cells.\n(§3) Immunoblot was performed as described^41. Primary antibodies were as follows: cleaved Caspase 3 (Cell Signaling, rabbit polyclonal, 1:1000), PARP1 (Santa Cruz, rabbit polyclonal, 1:500), MCL1 (Cell Signaling, Rabbit polyclonal, 1:1000), Bim (Santa Cruz, rabbit polyclonal, 1:500), Bik (Cell Signaling, rabbit polyclonal, 1:1000), Puma (Cell Signaling, rabbit polyclonal, 1:1000), Noxa (Calbiochem, mouse monoclonal, 1:500), Bid (Santa Cruz, rabbit polyclonal, 1:500), Bad (Santa Cruz, rabbit polyclonal, 1:500). Antibodies were diluted in 5% milk in TBS-T and incubated O.N. at 4° C. Secondary mouse and rabbit HRP-conjugated antibodies were from Amersham. Protein signal was detected using the ECL Plus kit (Amersham). For flow cytometry, cells were stained as previously described^33, using the following fluorescent-conjugated antibodies: CD44 (BD Biosciences), CD24 (BD Biosciences), CD326 (ESA, Biolegend), Annexin V (Invitrogen). For immunofluorescence microscopy, cells were fixed in 2% PFA for 10 min, permeabilized with 1% Triton X in PBS for 5 min, and incubated with primary antibodies in 0.5% Triton X, 1% FBS in PBS for 30 min at RT. Antibodies were: CK18 (Santa Cruz, mouse monoclonal, 1:100) and CK14 (Millipore, mouse monoclonal, 1:100). After washing the cells were stained sequentially with AlexaFluor647-conjugated secondary antibody (Invitrogen, 1:200) and DAPI (Sigma, 1:5000). For immunohistochemistry, BPLER tumor sections were prepared from paraffin-embedded tissues, deparaffinized and treated with 10% citrate buffer for 15 min. Staining was performed using a BIOGENEX IHC DAB kit (Biogenex) following the manufacturer's protocol. Primary antibodies were: CK14 (Millipore, mouse monoclonal, 1:100), CK5 (Millipore, mouse monoclonal, 1:100), HH3 (Cell Signaling, rabbit polyclonal, 1:100), ER (Abcam, mouse monoclonal, 1:100), Vimentin (Invitrogen, mouse monoclonal 1:100), Ki67 (Millipore, mouse monoclonal, 1:100)."}, "HMLER cells": {"test_system": "HMLER cells", "assay": "Apoptosis (Annexin V/PI flow cytometry, caspase 3 and PARP cleavage immunoblot)", "type": "cell-based, human", "settings": "clinically relevant / low dose, 24 hours", "protocol": "as §1, §2, §3"}, "BPE cells": {"test_system": "BPE cells", "assay": "Apoptosis (Annexin V/PI flow cytometry, caspase 3 and PARP cleavage immunoblot)", "type": "cell-based, human", "settings": "clinically relevant / low dose, 24 hours", "protocol": "as §1, §2, §3"}, "[1]": {"test_system": "mesenchymal MDA-MB-231 and MDA-MB-436 cells", "assay": "cells", "settings": "Homo sapiens, 24 h, read-out: decrease of cell viability"}, "proteasome [2]": {"molecular_target": "T1, proteasome (Homo sapiens, UniProt P28074)", "T1 sequence (P28074 60-263)": "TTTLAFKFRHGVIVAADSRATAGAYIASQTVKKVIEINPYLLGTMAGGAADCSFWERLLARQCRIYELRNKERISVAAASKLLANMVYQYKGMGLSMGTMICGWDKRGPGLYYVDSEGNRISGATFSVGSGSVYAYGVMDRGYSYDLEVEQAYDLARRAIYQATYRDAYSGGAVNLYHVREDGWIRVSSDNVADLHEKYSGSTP", "assay": "Proteasome activity in BPLER and HMLER cells (ProteaGlo assay)", "settings": "6 hr after treatment"}, "proteasome [3]": {"molecular_target": "T1, proteasome", "assay": "Proteasome activity in BPLER tumors after treatment (ProteasomeGlo assay)", "type": "in vivo, mouse", "settings": "after 18 hours", "protocol": "(6A) Proteasome activity in protein lysates from BPLER tumors 18 hours after intratumoral (i.t.), intraperithoneal (i.p) or intravenous (i.v.) treatment with bortezomib at the indicated dose, as determined by ProteasomeGlo assay. Proteasome activity in BPLER treated with bortezomib in vitro is shown as control. (6B-6E) Mean tumor volume (6B, 6D) in BPLER tumor-bearing mice after treatment with bortezomib or DMSO at the indicated dose, schedule and route of administration. Median tumor weight was measured at time of sacrifice (6C, 6E). […] (6F) Immunoblot analysis of protein lysates from BPLER tumors 18 hours after 1 intravenous dose of bortezomib at 1.6 mg/kg bortezomib or DMSO, showing efficient Noxa induction and caspase-3 and PARP1 cleavage after bortezomib treatment. (6G) Mean tumor volume in MB-468 tumor-bearing mice after intravenous treatment with 1.6 mg/kg bortezomib weekly. (6H) Schematic diagram illustrating generation of mouse TNBC primary tumor fragments for bortezomib-based therapy studies. […] 4T1-E tumors are shown as control. (6I, 6J) Mean V22 tumor volume (6I) after weekly intravenous infusion of bortezomib (1.6 mg/kg) or DMSO. Treatment was started 2 days after implantation of primary tumor fragments. […] The top and the bottom of each box represent the 75th and 25th percentile of tumor weight, respectively. Upper and lower whiskers represent maximum and minimum tumor weight, respectively. The black horizontal band in each box corresponds to median tumor weight.\nOur data thus far indicate that highly malignant epithelial TNBC cells are selectively susceptible to proteasome inhibition. Bortezomib is already in the clinic for treatment of multiple myeloma and other lymphomas. […] To assess therapeutic efficacy, we administered bortezomib every 3 days (0.8 mg/kg i.t.) or weekly (1.6 mg/kg i.v.) after BPLER tumors, implanted in the flank of Nu/J mice, became palpable. BPLER tumor outgrowth was assessed by tumor volume during the treatment period and by tumor weight at the time of sacrifice. […]"}, "[4]": {"test_system": "mesenchymal MDA-MB-231 and MDA-MB-436 cells", "settings": "MB-231, MB-436"}, "[5]": {"test_system": "unselected breast cancer patients", "settings": "eight phase I/II studies, chemotherapy combination regimens with bortezomib; cited from earlier work"}}, "note": "Entries after “also recorded” stand apart in the source; their conditions may differ.", "data": [{"compound": "CC(C)C[C@H](NC(=O)[C@H](Cc1ccccc1)NC(=O)c1cnccn1)B(O)O", "note": "[bortezomib]", "values": [{"measurement": "apoptosis (cleavage of caspase 3 and PARP)", "setting": "BPLER cells", "result": "marked cleavage; also recorded: died of apoptosis"}, {"measurement": "apoptosis (cleavage of caspase 3 and PARP)", "setting": "HMLER cells", "result": "only partially; also recorded: minimal signs of apoptosis"}, {"measurement": "apoptosis (cleavage of caspase 3 and PARP)", "setting": "BPE cells", "result": "resistant to bortezomib-induced apoptosis"}, {"measurement": "cytotoxicity at 0.0125 µM", "setting": "[1]", "result": "20 to 25", "unit": "%"}, {"measurement": "proteasomal activity in BPLER and HMLER", "setting": "proteasome [2]", "result": "similarly inhibited proteasome activity"}, {"measurement": "proteasome inhibition in the tumor", "setting": "proteasome [3]; 1.6 mg/kg i.v.", "result": "efficient proteasome activity inhibition"}, {"measurement": "proteasome inhibition in the tumor", "setting": "proteasome [3]; 1 dose 0.8 mg/kg i.p. or i.v.", "result": "less effective"}, {"measurement": "proteasome inhibition in the tumor", "setting": "proteasome [3]; 1 dose 0.8 mg/kg i.t.", "result": "Nearly complete proteasome inhibition"}, {"measurement": "sensitivity of mesenchymal breast cancer cell lines", "setting": "[4]", "result": "resistant"}, {"measurement": "partial response rates", "setting": "[5]", "result": "10-20%"}]}]}
